# In patent publication US20080004290A1, “Anti-Cancer Agents” (THE UNIVERSITY OF QUEENSLAND, priority 2003, published 2008):
# Where two headings read alike, the source gives them in different places.
# What was measured:
# [1] = test system: NFF, neonatal foreskin fibroblasts; assay: Cell survival assay (clonogenic survival, SRB), normal cells; type: cell-based, human; conditions: SRB
# Protocol: (§1) The cytotoxicities of the compounds of the invention were determined by clonogenic survival of human cancer cells (MM96L, melanoma) and human normal cells (NFF, neonatal foreskin fibroblasts). Cells were incubated with the compounds at various concentrations of compound (0.01-10 μg/mL) for 24 hours, washed, and then grown for a further four days in the absence of hydroxamic acid before determining cell survival by cell count. The final readout involved staining with sulforhodamine B (SRB), a cost-effective method amenable to automation and high throughput analysis. At the technical level, “cell sensitivity” is often inferred from short term (1-2 day) observations such as apoptosis, which may not be a satisfactory model of clonogenic survival.
# (§2) Cell Lines and Culture Medium. All cell lines used in this study have been described previously (Parsons et al., 1986; Todaro et al., 1980; Glenn et al., 2004). All cell lines were cultured in 10% heat-inactivated foetal calf serum (CSL, Australia) in RPMI 1640 medium supplemented with 100 U/mL penicillin, 100 μg/mL streptomycin, and 3 mM HEPES at 5% CO2, 99% humidity at 37° C. Primary human fibroblasts were obtained from neonatal foreskins and cultured in the above medium. Routine mycoplasma tests were performed using Hoechst stain^i and were always negative.
# (§3) Cell Survival Assay. Cells were plated into 96-well microtitre plates at 5×10^3 cells/well, and allowed to adhere overnight. Test compounds were added to culture medium at the indicated concentrations, and plates incubated in the above conditions for 24 hours. Following this incubation period, compounds and media were removed, and replaced with fresh culture medium. Cells were then grown for a further 72 hours before assay using sulforhodamine B (SRB; Sigma, St. Louis, Mo.) as previously described. Briefly, the culture medium was removed from the 96-well microtitre plates and the plates washed twice with phosphate buffered saline (PBS), before the cells were fixed with methylated spirits for 15 minutes. The plates were then rinsed with tap water and the fixed cells stained with 50 μL/well of SRB solution (0.4% sulforhodamine B (w/v) in 1% (v/v) acetic acid) over a period of 1 hour. The SRB solution was then removed from the wells and the plates rapidly washed two times with 1% (v/v) acetic acid. Protein bound dye was then solubilised with the addition of 100 μL of 10 mM unbuffered Tris, and incubated for 15 min at 25° C. Plates were then read at 564 nm on a VERSA max tunable microplate reader (Molecular Devices, Sunnyvale, Calif.).
# MM96L melanoma cells = assay: Cell survival assay (clonogenic survival, SRB); type: cell-based, human; conditions: for SI (Selectivity Index = IC50 (NFF)/IC50 (MM96L)): NFF vs MM96L
# Protocol: as §1, §2, §3
# [2] = NFF normal fibroblasts, 24 h with compound, further 72 h growth, read-out: IC50 (uM) NFF
# [3] = MM96L melanoma, 24 h with compound, further 72 h growth, SRB, read-out: IC50 (uM) MM96L
# [4] = Homo sapiens, Fibroblast, NFF normal fibroblasts, 24 h with compound, further 72 h growth, read-out: IC50 (uM) NFF
# [5] = Homo sapiens, MM96L, MM96L melanoma, 24 h with compound, further 72 h growth, SRB, read-out: IC50 (uM) MM96L
# [6] = Table 5, 24 hours with compound, further growth, read-out: IC50 NFF
# [7] = Table 5, 24 hours with compound, further growth, SRB, read-out: IC50 MM96L
# [8] = Table 5, Selectivity Index = IC50 (NFF)/IC50 (MM96L)
# [9] = Homo sapiens, Fibroblast, 24 h, Table 6, 24 hours with compound, further growth, read-out: IC50 (μM) NFF
# [10] = Homo sapiens, MM96L, 24 h, Table 6, 24 hours with compound, further growth, SRB, read-out: IC50 (μM) MM96L
# [11] = Table 6, IC50 (NFF)/IC50 (MM96L)
SMILES,"IC50 [1, 6] [µM]",IC50 (MM96L melanoma cells; [7]) [µM],Selectivity (MM96L melanoma cells; [8]),other results
CN(C)c1ccc(C(=O)NC(CSCCCC(=O)NO)C(=O)NCc2ccc(C(=O)NC3CCCc4ccccc43)cc2)cc1 (mixture of isomers) [Example 119],,,,"IC50 ([1]; Table 8, 24 hours with compound, further growth, read-out: IC50 (μM) NFF): 1.74 µM; IC50 (MM96L melanoma cells; Table 8, 24 hours with compound, further growth, SRB, read-out: IC50 (μM) MM96): 0.93 µM; Selectivity (MM96L melanoma cells; Table 8, IC50 (NFF)/IC50 (MM96L)): 1.9"
CN(C)c1ccc(C(=O)NC(CCCCCC(=O)NO)C(=O)NC2CCCc3ccccc32)cc1 (racemic) [Example 125],,,,"IC50 [1, 2]: 1.81 ± 0.07 µM; IC50 (MM96L melanoma cells; [3]): 0.3 ± 0.1 µM; SI (Selectivity Index = IC50 (NFF)/IC50 (MM96L)) (MM96L melanoma cells): 6.0"
O=C(CCCCC[C@H](NC(=O)c1ccco1)C(=O)NCc1ccccc1)NO (racemic) [Example 133],,,,"IC50 [1, 4]: 4.6 ± 0.4 µM; IC50 (MM96L melanoma cells; [5]): 0.2 ± 0.1 µM; IC50 (MM96L melanoma cells; Homo sapiens, MM96L, most preferred compounds, exemplary examples, read-out: potency of IC50 against the MM96 melanoma cells): ≤ 0.5 µM; SI (Selectivity Index = IC50 (NFF)/IC50 (MM96L)) (MM96L melanoma cells): 23"
O=C(CCCCC[C@H](NC(=O)c1cccnc1)C(=O)NCc1ccccc1)NO (racemic) [Example 134],,,,"IC50 [1, 4]: 24 ± 8 µM; IC50 (MM96L melanoma cells; [5]): 9.5 ± 0.8 µM; SI (Selectivity Index = IC50 (NFF)/IC50 (MM96L)) (MM96L melanoma cells): 2.5"
O=C(CCCCC[C@H](NC(=O)c1ccc([N+](=O)[O-])cc1)C(=O)NCc1ccccc1)NO (racemic) [Example 135],,,,"IC50 [1, 4]: 9 ± 2 µM; IC50 (MM96L melanoma cells; [5]): 6 ± 1 µM; SI (Selectivity Index = IC50 (NFF)/IC50 (MM96L)) (MM96L melanoma cells): 1.5"
CC(C)CCNC(=O)C(CCCCCC(=O)NO)NC(=O)c1ccco1 (racemic) [Example 144],,,,"IC50 [1, 2]: 4.4 ± 0.5 µM; IC50 (MM96L melanoma cells; [3]): 1.5 ± 0.2 µM; SI (Selectivity Index = IC50 (NFF)/IC50 (MM96L)) (MM96L melanoma cells): 2.9"
O=C(CCCSC[C@H](NC(=O)c1ccc(-c2ccccc2)cc1)C(=O)NCc1ccccc1)NO [Example 25],2.8 ± 0.2,0.9 ± 0.1,3.1,
Cc1cc(C)cc(C(=O)N[C@@H](CSCCCC(=O)NO)C(=O)NCc2ccccc2)c1 [Example 26],10.9 ± 0.9,2 ± 0.4,5.5,
O=C(CCCSC[C@H](NC(=O)c1ccccc1C(=O)c1ccccc1)C(=O)NCc1ccccc1)NO [Example 27],30 ± 1,24 ± 3,1.3,
O=C(CCCSC[C@H](NC(=O)c1ccc(F)cc1Cl)C(=O)NCc1ccccc1)NO [Example 28],> 100,28 ± 3,>3,
O=C(CCCSC[C@H](NC(=O)c1ccc(F)cc1)C(=O)NCc1ccccc1)NO [Example 29],26 ± 1,5.2 ± 0.6,5.0,
COc1cc(OC)cc(C(=O)N[C@@H](CSCCCC(=O)NO)C(=O)NCc2ccccc2)c1 [Example 30],4.5 ± 0.6,1.7 ± 0.3,2.6,
O=C(CCCSC[C@H](NC(=O)c1cccc(O)c1O)C(=O)NCc1ccccc1)NO [Example 31],4.5 ± 0.6,32 ± 3,0.14,
O=C(CCCSC[C@H](NC(=O)c1ccccc1[N+](=O)[O-])C(=O)NCc1ccccc1)NO [Example 32],> 100,10.6 ± 0.1,>10,
O=C(CCCSC[C@H](NC(=O)c1cccs1)C(=O)NCc1ccccc1)NO [Example 33],9 ± 1,2.5 ± 0.2,3.6,
O=C(CCCSC[C@H](NC(=O)c1ccco1)C(=O)NCc1ccccc1)NO [Example 34],22 ± 1,7.2 ± 0.2,3.1,
O=C(CCCSC[C@H](NC(=O)c1cnccn1)C(=O)NCc1ccccc1)NO [Example 35],62 ± 5,19 ± 2,3.3,
O=C(CCCSC[C@H](NC(=O)c1cccnc1)C(=O)NCc1ccccc1)NO [Example 36],> 100,12.8 ± 0.8,>8,
O=C(CCCSC[C@H](NC(=O)c1cccc2ccccc12)C(=O)NCc1ccccc1)NO [Example 37],5.3 ± 0.6,6.3 ± 0.6,0.8,
O=C(CCCSC[C@H](NC(=O)c1ccc2ccccc2c1)C(=O)NCc1ccccc1)NO [Example 38],1.14 ± 0.05,0.6 ± 0.2,1.9,
O=C(CCCSC[C@H](NC(=O)c1cc2ccccc2cc1O)C(=O)NCc1ccccc1)NO [Example 39],> 100,13 ± 2,>8,

SMILES,"IC50 [1, 6] [µM]",IC50 (MM96L melanoma cells; [7]) [µM],Selectivity (MM96L melanoma cells; [8]),other results
O=C(CCCSC[C@H](NC(=O)Cc1cccc([N+](=O)[O-])c1)C(=O)NCc1ccccc1)NO [Example 41],> 100,12 ± 1,>8,
O=C(CCCSC[C@H](NC(=O)Cc1ccc(-c2ccccc2)cc1)C(=O)NCc1ccccc1)NO [Example 42],21 ± 2,12 ± 3,1.8,
O=C(CCCSC[C@H](NC(=O)C(c1ccccc1)c1ccccc1)C(=O)NCc1ccccc1)NO [Example 43],22 ± 2,9.3 ± 0.3,2.4,
O=C(CCCSC[C@H](NC(=O)Cc1cccc2ccccc12)C(=O)NCc1ccccc1)NO [Example 45],15 ± 1,4.1 ± 0.7,3.7,
O=C(CCCSC[C@H](NC(=O)CCc1ccccc1)C(=O)NCc1ccccc1)NO [Example 46],21 ± 3,7.4 ± 0.5,2.9,
COc1ccc(CCC(=O)N[C@@H](CSCCCC(=O)NO)C(=O)NCc2ccccc2)cc1 [Example 47],16 ± 1,8 ± 1,2.0,
O=C(/C=C/c1ccccc1)N[C@@H](CSCCCC(=O)NO)C(=O)NCc1ccccc1 [Example 48],0.8 ± 0.2,0.2 ± 0.1,4.0,
O=C(CCCSC[C@H](NC(=O)CCCc1ccccc1)C(=O)NCc1ccccc1)NO [Example 49],11 ± 2,5 ± 1,2.2,
CC(C)CCC(=O)N[C@@H](CSCCCC(=O)NO)C(=O)NCc1ccccc1 [Example 50],25 ± 4,7 ± 2,3.6,
C/C=C/C(=O)N[C@@H](CSCCCC(=O)NO)C(=O)NCc1ccccc1 [Example 52],> 100,11 ± 0.7,>9,
CC(C)=CC(=O)N[C@@H](CSCCCC(=O)NO)C(=O)NCc1ccccc1 [Example 53],22 ± 1,11 ± 1,2.0,
O=C(CCCSC[C@H](NC(=O)C1CCCC1)C(=O)NCc1ccccc1)NO [Example 54],> 100,21 ± 3,>5,
O=C(CCCSC[C@H](NC(=O)C1CC1)C(=O)NCc1ccccc1)NO [Example 55],> 100,21 ± 2,>5,
O=C(CCCSC[C@H](NC(=O)C1CCC(=O)N1)C(=O)NCc1ccccc1)NO (stereo partly shown) [Example 56],9.6 ± 0.9,4.4 ± 0.3,2.2,
O=C(CCCSC[C@H](NS(=O)(=O)c1ccccc1)C(=O)NCc1ccccc1)NO [Example 58],> 100,< 100,>1,
CC(=O)c1cccc(NC(=O)[C@H](CSCCCC(=O)NO)NC(=O)c2ccc(N(C)C)cc2)c1 [Example 60],,,,"IC50 [1, 9]: 1.6 ± 0.08 µM; IC50 (MM96L melanoma cells; [10]): 0.55 ± 0.05 µM; Selectivity (MM96L melanoma cells; [11]): 2.9"
CN(C)c1ccc(C(=O)N[C@@H](CSCCCC(=O)NO)C(=O)Nc2ccccc2-c2ccccc2)cc1 [Example 62],,,,"IC50 [1, 9]: 4.4 ± 0.6 µM; IC50 (MM96L melanoma cells; [10]): 2.1 ± 0.2 µM; Selectivity (MM96L melanoma cells; [11]): 2.1"
COC(=O)c1ccc(NC(=O)[C@H](CSCCCC(=O)NO)NC(=O)c2ccc(N(C)C)cc2)cc1 [Example 63],,,,"IC50 [1, 9]: 2.8 ± 0.1 µM; IC50 (MM96L melanoma cells; [10]): 0.96 ± 0.07 µM"
CN(C)c1ccc(C(=O)N[C@@H](CSCCCC(=O)NO)C(=O)Nc2ccccc2Cc2ccccc2)cc1 [Example 64],,,,"IC50 [1, 9]: 6.8 ± 0.4 µM; IC50 (MM96L melanoma cells; [10]): 3.5 ± 0.2 µM; Selectivity (MM96L melanoma cells; [11]): 1.9"
O=C(CCCCCC(NC(=O)C(Cc1ccccc1)NC(=O)Cc1c[nH]c2ccccc12)C(=O)NCc1ccccc1)NO (stereo not shown) [Example 164],,,,"IC50 [1, 2]: 9.76 µM"
